Data from US7982030B2, “Synthesis of selenium-derivatized nucleosides, nucleotides, phosphoramidites, triphosphates and nucleic acids” (Georgia State University Research Foundation, Inc., priority 2001, dated 2011).

Biological target: T1, DNA polymerase (Klenow Fragment) (Escherichia coli, UniProt P00582)
T1 construct: using a DNA polymerase (Klenow Fragment)
Assay: terminal extension on a DNA template: substrate recognition by Klenow
Type: biochemical
Conditions: 3′-terminal extension on a DNA template
Procedure: An alternative approach to label RNAs with selenium is based on the RNA 3′-labeling method (FIG. 9). See ref. 33. After a long RNA is prepared by transcription using ordinary NTPs, α-Se-dNTPs is transferred to its 3′-terminus on a DNA template using a DNA polymerase (Klenow Fragment). […] Experiments also reveal that the number of incorporated dNTPs is dependent on the length of the overhanging nucleotides of the template, and the terminal extension reaction giving full-length product with high yields in the presence of high dNTP concentration. The products may be purified by any one of a variety of methods well known in the art, such as for example, preparative anion exchange HPLC, to single nucleotide resolution for RNA as long as 70 nucleotides. (Ref 34). This terminal transfer approach can be very useful for medium size RNAs (up to 80 nucleotides). An analogous approach can be used to prepare Se-DNAs.

T1 sequence (P00582 324-928): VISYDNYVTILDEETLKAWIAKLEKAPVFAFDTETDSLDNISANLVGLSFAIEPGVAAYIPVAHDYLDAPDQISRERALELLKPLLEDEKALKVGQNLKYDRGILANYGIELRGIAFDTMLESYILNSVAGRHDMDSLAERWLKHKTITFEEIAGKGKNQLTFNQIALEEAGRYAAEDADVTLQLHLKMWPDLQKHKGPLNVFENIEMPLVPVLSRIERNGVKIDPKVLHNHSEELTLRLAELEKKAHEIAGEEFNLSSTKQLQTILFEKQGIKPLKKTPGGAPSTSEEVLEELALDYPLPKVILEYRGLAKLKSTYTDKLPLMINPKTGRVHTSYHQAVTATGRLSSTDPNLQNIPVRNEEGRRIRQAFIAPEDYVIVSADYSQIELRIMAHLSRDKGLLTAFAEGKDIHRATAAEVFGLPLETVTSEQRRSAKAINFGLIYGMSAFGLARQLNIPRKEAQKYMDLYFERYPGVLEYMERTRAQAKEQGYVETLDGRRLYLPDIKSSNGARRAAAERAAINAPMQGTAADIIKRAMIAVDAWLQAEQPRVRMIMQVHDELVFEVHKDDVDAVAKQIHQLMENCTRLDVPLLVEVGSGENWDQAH

Compound: Cc1cn(C2CC(O)C(COP(O)(=[Se])OP(=O)(O)OP(=O)(O)O)O2)c(=O)[nH]c1=O (stereo not drawn) [α-Se-TTP 24]
- recognition as a substrate by Klenow: recognized α-Se-TTP 24 as a substrate
